By IC50 is commonly meant the midpoint of a concentration-inhibition curve. Low values mean inhibition by little substance, high ones a need for much substance.

Our source for the IC50 values is BindingDB's records for patent US20240018157 (Schrödinger, 2024).

A value given as a limit tells only on which side of the number the result lay.

For experiment [1], the target named is T1, Mucosa-associated lymphoid tissue lymphoma translocation protein 1 (Homo sapiens, UniProt Q9UDY8).
T1 sequence (Q9UDY8 whole entry): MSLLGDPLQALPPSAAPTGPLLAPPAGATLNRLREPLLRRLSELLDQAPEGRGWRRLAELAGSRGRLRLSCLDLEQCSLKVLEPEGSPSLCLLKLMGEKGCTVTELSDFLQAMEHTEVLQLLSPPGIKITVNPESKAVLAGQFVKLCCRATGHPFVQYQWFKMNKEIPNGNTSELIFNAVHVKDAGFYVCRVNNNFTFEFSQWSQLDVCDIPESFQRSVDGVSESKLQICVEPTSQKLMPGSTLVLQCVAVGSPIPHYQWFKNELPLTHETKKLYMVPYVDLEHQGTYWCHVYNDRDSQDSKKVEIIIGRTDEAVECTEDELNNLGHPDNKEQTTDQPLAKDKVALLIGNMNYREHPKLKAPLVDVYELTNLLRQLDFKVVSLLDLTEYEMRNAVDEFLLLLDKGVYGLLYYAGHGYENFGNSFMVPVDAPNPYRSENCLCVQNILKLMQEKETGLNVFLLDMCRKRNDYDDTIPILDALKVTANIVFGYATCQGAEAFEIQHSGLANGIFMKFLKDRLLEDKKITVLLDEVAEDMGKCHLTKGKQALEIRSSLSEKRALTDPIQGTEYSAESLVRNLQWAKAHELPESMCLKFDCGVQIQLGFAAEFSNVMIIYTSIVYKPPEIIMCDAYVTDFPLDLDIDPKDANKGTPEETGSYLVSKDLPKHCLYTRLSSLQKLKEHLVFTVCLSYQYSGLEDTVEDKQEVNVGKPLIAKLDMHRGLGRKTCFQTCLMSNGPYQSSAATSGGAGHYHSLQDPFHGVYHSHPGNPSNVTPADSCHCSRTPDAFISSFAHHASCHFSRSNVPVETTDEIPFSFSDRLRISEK
The experiment in a line: MALT1 Protease Assay 1. As for the experimental part:
The final assay buffer includes 2 nM of MALT1 full-length protein, 50 μM Ac-LRSR-AMC substrate, 50 mM Tris pH 7.5, 600 mM Sodium Citrate, 1 mM DTT, 1 mM EDTA, and 0.05% BSA in 384-well plate format using black microtiter square well plates (Optiplate 384-F, Perkin Elmer). Test compounds were dissolved in 100% DMSO at stock of 10 mM, with final DMSO concentration 0.1%. Test compounds were pre-incubated with MALT1 protein for 2 h at room temperature. Substrate was added after the pre-incubation and fluorescence signal was measured using Envision at excitation 355 nm and emission 460 nm after 8 hr incubation at RT. Increase in the assay signal was linear over this period and proportional with increase in the enzyme content.

The target of experiment [2] is T1, Mucosa-associated lymphoid tissue lymphoma translocation protein 1. The experiment in a line: MALT1 Protease Assay 2. As for the experimental part: Test compounds were dissolved in 100% DMSO at stock of 10 mM, with final DMSO concentration 0.1%. Test compounds were pre-incubated with MALT1 protein for 2 h at room temperature.

`C[C@@]1(C(F)(F)F)CN(C(=O)Nc2cnc(-n3nccn3)c(C(F)(F)F)c2)c2cnc3cc(Cl)nn3c21` [US20240018157, Example 40] yielded an IC50 in experiment [1] of under 10 nM. Compound `C[C@@]1(C(F)(F)F)CN(C(=O)Nc2cnc(-n3nccn3)c(C#N)c2)c2cnc3cc(Cl)nn3c21` [US20240018157, Example 41] yielded a half-inhibitory concentration (IC50) in experiment [1] of under 10 nM. In experiment [1], `C[C@@]1(C(F)(F)F)CN(C(=O)Nc2cnc(-n3ccnn3)c(C(F)(F)F)c2)c2cnc3cc(Cl)nn3c21` [US20240018157, Example 44] yielded an IC50 of under 10 nM.

In experiment [1], `COCc1ncc(NC(=O)N2C[C@@](C)(C(F)(F)F)c3c2cnc2cc(Cl)nn32)cc1Cl` [US20240018157, Example 45] had an IC50 of 10 to 100 nM. Same read-out and setting: the result for `C[C@@]1(C(F)(F)F)CN(C(=O)Nc2cnc([C@@H]3CCCCO3)c(Cl)c2)c2cnc3cc(Cl)nn3c21` [US20240018157, Example 46] reads 10 to 100 nM; that for `C[C@@]1(C(F)(F)F)CN(C(=O)Nc2cnc([C@H]3CCCCO3)c(Cl)c2)c2cnc3cc(Cl)nn3c21` [US20240018157, Example 47], 10 to 100 nM; that for `C[C@@]1(C(F)(F)F)CN(C(=O)Nc2cnc(-n3cc(O)cn3)c(Cl)c2)c2cnc3cc(Cl)nn3c21` [US20240018157, Example 48], under 10 nM. Still for that read-out and setting: with `C[C@@]1(C(F)(F)F)CN(C(=O)Nc2cnc(OC(F)F)c(Cl)c2)c2cnc3cc(Cl)nn3c21` [US20240018157, Example 49] the figure was under 10 nM. For the compound `C[C@@]1(C(F)(F)F)CN(C(=O)N[C@@H]2CCCC(F)(F)C2)c2cnc3cc(Cl)nn3c21` [US20240018157, Example 54], the IC50 in experiment [2] is 100 to 1000 nM; in experiment [1], over 1000 nM.
